Source: patent US20240285670A1, “THERAPEUTIC TREATMENT OF TUMORS BY BLOCKING THE HEME SYNTHESIS-EXPORT AXIS” (Università degli Studi di Torino, priority 2021, published 2024)

What was measured:
Type in all cases: cell-based, human
Caco2 cells [1] = test: Intracellular 5-ALA levels and 13C-isotope labelling (LC-MS) in Caco2 cells
Procedure: (A) Heme content in Caco2 cells treated with 5 mM 5-ALA (black bars and white bars) or with 5 mM 5-ALA+0.5 mM SA (light grey outlined bars) for the indicated time points. […] Values are expressed as relative fluorescence intensity. Data represent mean±SEM, n=2. For statistical analyses, a two-way analysis of variance was used, followed by the Bonferroni correction for multiple group comparisons; **=p<0.01, ***=p<0.001. 5-ALA, 5-aminolevulinic acid; SA, succinylacetone. (B) Intracellular 5-ALA levels. […] Values are expressed as peak area/μg proteins. Data represent mean±SEM of n=4 wells pooled from two independent experiments. For statistical analyses, an unpaired Student's t-test was used; **=p<0.01. 5-ALA, 5-aminolevulinic acid. (C, D) Accumulation of ^13C2-5-ALA in cells incubated with U-^13C-glucose (C) or of ^13C3-5-ALA in cells incubated with U-^13C-glutamine (D) for the indicated time. […] Values are expressed as peak area/μg proteins. Data represent mean±SEM of n=4 wells pooled from two independent experiments. For statistical analyses, a two-way analysis of variance was used, followed by the Bonferroni correction for multiple group comparisons; ***p<0.001. […] Transcript abundance, normalized to beta-actin mRNA expression, is expressed as a fold increase over a calibrator sample. […] Band intensities were measured by densitometry and normalized to vinculin expression. […]

Caco2 cells [2] = test: TCA cycle flux in Caco2 cells; conditions: FLVCR1a-silenced vs scramble shRNA Caco2 cells
Excerpt: (§1) TCA cycle flux is reported in the centre of the figure and expressed as pmol CO2/h/mg protein. Data represent mean±SEM, n=3. For statistical analyses, an unpaired Student's t-test was used. **=p<0.01. Moreover, TCA cycle enzymes activities are reported in boxes and expressed as mU/mg mitochondrial proteins. Data represent mean±SEM, n=3. For statistical analyses, an unpaired Student's t-test was used; *=p<0.05, ***=p<0.001. […] Results are expressed as pmol CO2/h/mg protein. Data represent mean±SEM, n=3. For statistical analyses, an unpaired Student's t-test was used; *=p<0.05, **=p<0.01.
(A) TCA cycle flux in Caco2 cells expressing a scramble shRNA untreated or treated with 25 μM hemin for 2 hours. Moreover, the TCA cycle flux of untreated FLVCR1a-silenced Caco2 cells is reported for comparison. Results are expressed as pmol CO2/h/mg protein. Data represent mean±SEM, n=3. […] Results are expressed as pmol CO2/h/mg protein. […] Results are expressed as pmol CO2/h/mg protein. […]
The glucose flux through TCA cycle was measured by radiolabeling cells with 2 μCi/ml [6-^14C]-glucose (55 mCi/mmol; PerkinElmer, Waltham, MA, USA, catalog n° NEC045X). […] The amount of glucose transformed into CO2 through the TCA cycle was calculated as described (Riganti et al., 2004) and expressed as pmoles CO2/h/mg cell proteins.

SKCO1 cells = test: TCA cycle flux in SKCO1 cells; conditions: FLVCR1a-silenced vs scramble shRNA SKCO1 cells
Excerpt: as §1
The glucose flux through TCA cycle was measured by radiolabeling cells with 2 μCi/ml [6-^14C]-glucose (55 mCi/mmol; PerkinElmer, Waltham, MA, USA, catalog n° NEC045X). Cell suspensions were incubated for 1 hour in a closed experimental system to trap the ^14CO2 developed from [^14C]-glucose. The reaction was stopped by injecting 0.5 ml of 0.8N HClO4. The amount of glucose transformed into CO2 through the TCA cycle was calculated as described (Riganti et al., 2004) and expressed as pmoles CO2/h/mg cell proteins.

With “FLVCR1a shRNA: shRNA specifically down-regulating FLVCR1a without targeting FLVCR1b; pLKO.1 lentiviral clone TRCN0000059599, antisense SEQ ID No.: 2 (antisense TTGCTAATGATGCTGTACTGG; sense CCAGTACAGCATCATTAGCAA)” as the substance, how does the “Intracellular 5-ALA levels” value (Caco2 cells [1]; FLVCR1a-silenced vs scramble shRNA Caco2 cells) read?
Its value is “lower amount of 5-ALA”.

And the “incorporation of labelled carbons in 5-ALA” value (Caco2 cells [1]; U-13C-glucose or U-13C-glutamine, time course, FLVCR1a-silenced vs scramble)?
The value was “reduced incorporation of labelled carbons in 5-ALA”.

What about the “total flux of the TCA cycle” value (Caco2 cells [2]) of the same substance?
Its value is “significantly up-regulated”.

What about the TCA cycle flux (SKCO1 cells) of the same substance?
Its TCA cycle flux is “Increased TCA cycle flux”.
